Data: PubChem BioAssay (NCI)
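In this assay, cells in 96-well plates receive the compound at five concentrations for 48 hours. Endpoints are linearly interpolated between the surrounding concentrations. At the GI50, growth is halved. The concentration for full growth arrest is given as TGI.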

Assays:
Experiment in all cases: NCI anticancer screen, dose series, 48 h
HT29 colon = test system: HT29 colon
MALME-3M melanoma = test system: MALME-3M melanoma
MOLT-4 leukemia = test system: MOLT-4 leukemia
SF-268 CNS = test system: SF-268 CNS
OVCAR-8 ovarian = test system: OVCAR-8 ovarian
KM12 colon = test system: KM12 colon
NCI/ADR-RES ovarian = test system: NCI/ADR-RES ovarian
UO-31 renal = test system: UO-31 renal
SK-MEL-28 melanoma = test system: SK-MEL-28 melanoma
MDA-MB-435 = test system: MDA-MB-435
M14 melanoma = test system: M14 melanoma
COLO 205 colon = test system: COLO 205 colon
IGROV1 ovarian = test system: IGROV1 ovarian
ACHN renal = test system: ACHN renal
NCI-H460 lung = test system: NCI-H460 lung
HOP-62 NSCLC = test system: HOP-62 NSCLC
SNB-19 CNS = test system: SNB-19 CNS
HCT-15 colon = test system: HCT-15 colon
SF-539 CNS = test system: SF-539 CNS
TK-10 renal = test system: TK-10 renal
RPMI-8226 leukemia = test system: RPMI-8226 leukemia
UACC-62 melanoma = test system: UACC-62 melanoma
OVCAR-4 ovarian = test system: OVCAR-4 ovarian
LOX IMVI melanoma = test system: LOX IMVI melanoma
NCI-H23 lung = test system: NCI-H23 lung
SK-MEL-2 melanoma = test system: SK-MEL-2 melanoma
786-0 renal = test system: 786-0 renal
SK-MEL-5 melanoma = test system: SK-MEL-5 melanoma
T-47D breast = test system: T-47D breast
A549 NSCLC = test system: A549 NSCLC
CAKI-1 renal = test system: CAKI-1 renal
SF-295 CNS = test system: SF-295 CNS
NCI-H522 lung = test system: NCI-H522 lung
OVCAR-3 ovarian = test system: OVCAR-3 ovarian
PC-3 prostate = test system: PC-3 prostate
HCT-116 colon = test system: HCT-116 colon
BT-549 breast = test system: BT-549 breast
HS 578T breast = test system: HS 578T breast
EKVX NSCLC = test system: EKVX NSCLC
U251 CNS = test system: U251 CNS
SK-OV-3 ovarian = test system: SK-OV-3 ovarian
SW-620 colon = test system: SW-620 colon
NCI-H226 lung = test system: NCI-H226 lung
UACC-257 melanoma = test system: UACC-257 melanoma
HCC-2998 colon = test system: HCC-2998 colon
SN12C renal = test system: SN12C renal
K-562 leukemia = test system: K-562 leukemia
MDA-MB-231 breast = test system: MDA-MB-231 breast
HOP-92 NSCLC = test system: HOP-92 NSCLC
HL-60(TB) leukemia = test system: HL-60(TB) leukemia
MCF7 breast = test system: MCF7 breast
DU-145 prostate = test system: DU-145 prostate
CCRF-CEM leukemia = test system: CCRF-CEM leukemia
OVCAR-5 ovarian = test system: OVCAR-5 ovarian
A498 renal = test system: A498 renal
SR leukemia = test system: SR leukemia
SNB-75 CNS = test system: SNB-75 CNS

## CC(C)(C)Nc1nc2c(OCCc3ccccc3)cccn2c1-c1cccc(Oc2ccccc2)c1
HT29 colon
  GI50: 3.75 µM
  TGI: > 100 µM
MALME-3M melanoma
  GI50: 8.12 µM
  TGI: > 100 µM
MOLT-4 leukemia
  GI50: 11 µM
  TGI: > 100 µM
SF-268 CNS
  GI50: 8.03 µM
  TGI: > 100 µM
OVCAR-8 ovarian
  GI50: 14.8 µM
  TGI: > 100 µM
KM12 colon
  GI50: 7.42 µM
  TGI: > 100 µM
NCI/ADR-RES ovarian
  GI50: 7.51 µM
  TGI: > 100 µM
UO-31 renal
  GI50: 3.13 µM
  TGI: 80.7 µM
SK-MEL-28 melanoma
  GI50: 4.87 µM
  TGI: > 100 µM
MDA-MB-435
  GI50: 4.97 µM
  TGI: > 100 µM
M14 melanoma
  GI50: 18.6 µM
  TGI: > 100 µM
COLO 205 colon
  GI50: 12.3 µM
  TGI: 25.9 µM
IGROV1 ovarian
  GI50: 12.4 µM
  TGI: > 100 µM
ACHN renal
  GI50: 7.67 µM
  TGI: > 100 µM
NCI-H460 lung
  GI50: 4.6 µM
  TGI: > 100 µM
HOP-62 NSCLC
  GI50: 15.1 µM
  TGI: > 100 µM
SNB-19 CNS
  GI50: 6.62 µM
  TGI: > 100 µM
HCT-15 colon
  GI50: 3.89 µM
  TGI: > 100 µM
SF-539 CNS
  GI50: 16.3 µM
  TGI: 43.1 µM
TK-10 renal
  GI50: 26.9 µM
  TGI: > 100 µM
RPMI-8226 leukemia
  GI50: 3.4 µM
  TGI: > 100 µM
UACC-62 melanoma
  GI50: 3.43 µM
  TGI: 53.8 µM
OVCAR-4 ovarian
  GI50: 4 µM
  TGI: > 100 µM
LOX IMVI melanoma
  GI50: 8.54 µM
  TGI: 41.2 µM
NCI-H23 lung
  GI50: 5.86 µM
  TGI: > 100 µM
SK-MEL-2 melanoma
  GI50: 5.16 µM
  TGI: 26.8 µM
786-0 renal
  GI50: 3.8 µM
  TGI: > 100 µM
SK-MEL-5 melanoma
  GI50: 4.95 µM
  TGI: 17.6 µM
T-47D breast
  GI50: 3.13 µM
  TGI: > 100 µM
A549 NSCLC
  GI50: 7.42 µM
  TGI: > 100 µM
CAKI-1 renal
  GI50: 9.11 µM
  TGI: > 100 µM
SF-295 CNS
  GI50: 5.54 µM
  TGI: > 100 µM
NCI-H522 lung
  GI50: 6.95 µM
  TGI: > 100 µM
OVCAR-3 ovarian
  GI50: 3.71 µM
  TGI: > 100 µM
PC-3 prostate
  GI50: 4 µM
  TGI: > 100 µM
HCT-116 colon
  GI50: 3.42 µM
  TGI: > 100 µM
BT-549 breast
  GI50: 3.48 µM
  TGI: 29.7 µM
HS 578T breast
  GI50: 5.51 µM
  TGI: > 100 µM
EKVX NSCLC
  GI50: 4.54 µM
  TGI: > 100 µM
U251 CNS
  GI50: 3.89 µM
  TGI: > 100 µM
SK-OV-3 ovarian
  GI50: 24.2 µM
  TGI: > 100 µM
SW-620 colon
  GI50: 7.97 µM
  TGI: > 100 µM
NCI-H226 lung
  GI50: 3.45 µM
  TGI: > 100 µM
UACC-257 melanoma
  GI50: 4.1 µM
  TGI: > 100 µM
HCC-2998 colon
  GI50: 6.21 µM
  TGI: > 100 µM
SN12C renal
  GI50: 5.17 µM
  TGI: > 100 µM
K-562 leukemia
  GI50: 6.18 µM
  TGI: > 100 µM
MDA-MB-231 breast
  GI50: 18.7 µM
  TGI: 83 µM
HOP-92 NSCLC
  GI50: 2.22 µM
  TGI: 7.08 µM
HL-60(TB) leukemia
  GI50: 18.6 µM
  TGI: > 100 µM
MCF7 breast
  GI50: 4.34 µM
  TGI: > 100 µM
DU-145 prostate
  GI50: 19.4 µM
  TGI: > 100 µM
CCRF-CEM leukemia
  GI50: 7.07 µM
  TGI: > 100 µM
OVCAR-5 ovarian
  GI50: 17.8 µM
  TGI: > 100 µM
A498 renal
  GI50: 8.91 µM
  TGI: 83.9 µM
SR leukemia
  GI50: 12.3 µM
  TGI: > 100 µM
SNB-75 CNS
  GI50: 5.53 µM
  TGI: > 100 µM
